In test [1] the test system is human normal breast cells MCF-10A. Kind of test: MTT cell viability assay. The class given is cell-based. As for the experimental part:
The breast tumor cells (MDA-MB-231, MDA-MB-435, MDA-MB-453, MDA-MB-468 and MCF-7) were commercially obtained from the bioresource collection and research center (BCRC), and were cultured in a 10% FBS-DMEM culture medium (i.e., a DMEM culture medium including 10% fetal bovine serum (FBS)). The human breast cell MCF-10A was cultured in a 5% FBS-DMEM culture medium (including F12, insulin, hydrocortisol and epidermal growth factor). An environment of 5% CO2 was kept in the incubator at a constant temperature of 37° C. When a certain number of cells were generated in culture, the culture medium was removed after being centrifuged for 10 min at a rate of 900 rpm. The culture medium was replaced in 24 h before the experiment, and the number of cells was counted by a hemocytometer.
(§1) The cell viability was determined by a method of […] (MTT assay). The test method for assaying cell viability refers to steps provided by Parada-Turska et al.
(§2) The breast tumor cells MDA-MB-231 were inoculated in a 24-well plate (2.5×10^5 cells/well), and the next day after cells were adhered to the wall of the plate, the cells were washed with PBS. 1% FBS-DMEM culture medium was then added so as to synchronize cells. The next day compound II having different concentrations were added into the wells, and the cells were subsequently cultured in an atmosphere of 5% CO2 at 37° C. for 24 h. The cells were washed with PBS once, and 400 μl MTT agent was added in each well so as to react for 4 h. Then 400 μl 10% SDS was added in each well so as to react for 12 h. 200 μl supernatant was taken from the well and then added into a 96-well microplate, so as to measure the absorbance at 570 nm.
(In general: Tetrazolium dyes change colour on reduction, which living cells bring about.)

Test [2] has as its system Normal Endothelial Cell (EAhy926 cell strain). Briefly: MTT cell viability assay. The class given is cell-based, human. As for the experimental part:
as §1
as §2, with “Then 400 μl 10% SDS was added in each well so as to react for 12 h.” left out
In the MTT assay, the umbilical vein endothelial cells (EAhy926 cell strain) was planted 80 percent full and cultured in a 1×HAT culture medium including 15% FBS-DMEM, 1% glutamine and 1% PSN (used for screening cells having the characteristic of cell fusion). […] The culture medium was replaced in 24 h before the experiment, and the number of cells was counted by a hemocytometer. […] The supernatant was taken and putted into a 96-well microplate, and then the absorbance was measured at a wavelength of 570 nm.

For test [3], the system named is ERK1/2, p38 and JNK1/2 in breast tumor cells. Kind of test: western blotting of MAPK proteins and phosphorylation. The class given is cell-based, human. The settings on record: 2 μM, 0-120 min. Here is the method:
The steps of western blotting include: washing cells with PBS twice at 4° C.; adding a lysis buffer and rubbing the cells by a rubbr policeman so as to lyse cells; putting the lysed cell solution into a 1.5 ml microcentrifuge tube and shaking for 1 min; centrifuging at 12000 rpm for 10 min and taking the supernatant; measuring concentration of the protein through a Bio-Rad protein assay kit; and storing the remained extracted protein solution at −70° C.; taking 100 μg protein solution and adding a SDS/protein loading buffer having the same volume, where the SDS/protein loading buffer has a concentration two times larger than the protein solution; boiling the mixture of the protein solution and the SDS/protein loading buffer at 100° C. for 10 min; cooling and loading the protein samples in each hole of gel; adjusting the voltage to 100 V and running the protein samples on the gel until the tracking dye in the sample buffer reaches the bottom of the gel; and subsequently transferring the protein from the gel using electrophoresis. […] Then luminescence image equipment was used, where the PVDF was placed onto a black metal plate by a plastic pincer and the face including protein was upwards, a 1:1 mixed Chemiluminesent Substrate was added into the membrane and the exposure time depends on the fluorescence intensity of antibodies. […]
On the technique in general: A western blot detects proteins with antibodies after separation by electrophoresis.

Each structure is given as a SMILES string. Where two headings read alike, the source gives them in different places.

For `COC1=C(OC)C(=O)C(C)=C(C)C1=O` [compound II], the IC50 – broadly, the point on the concentration scale where inhibition reaches its midpoint – in test [1] (MCF-10A, 0-40 μM for 24 h, FIG. 1A, read-out: IC50 for inhibiting the normal breast cells MCF-10A) was about 25 µM; in test [1] (viability, MCF-10A cell strain, Table 1, read-out: IC50) it was 24.1 µM; in test [2] (Homo sapiens, EA.hy 926, viability, EAhy926 cell strain), 35.1 µM. Besides, the cell viability entry in test [2] (EAhy926, concentration above 10 μM, 10 ng/mL TNF-α/TGF stimulation, FIG. 18) is “significantly decreased”. The “phosphorylation of ERK1/2, p38 and JNK1/2” value in test [3] is listed as “probably inhibited”. In addition, the “protein expression of ERK1/2, p38 and JNK1/2” value in test [3] was “not affected”.

Source of the values: patent US20150087722A1, “TREATMENT FOR BREAST TUMOR CELL METASTASIS” (China Medical University, priority 2012, published 2015).
